Data taken from ChEMBL document CHEMBL2086370 (J Med Chem, 2012).

Assays:
[1] = tested on: Brain; assay: Drug uptake in Harlan Sprague-Dawley rat brain at 3 ug/kg, iv after 10 mins by LC-MS/MS analysis; type: ADME, organism-based; details: in vivo, 0.003 mg/kg
[2] = Lipophilicity, log D of the compound at pH 7.4 by potentiometric method; type: physicochemical; details: buffer
[3] = tested on: Brain; assay: Drug uptake in Harlan Sprague-Dawley rat brain at 3 ug/kg, iv up to 60 mins by LC-MS/MS analysis; details: in vivo, 1 h
[4] = molecular target: Mu-type opioid receptor (Homo sapiens, UniProt P35372); assay: Displacement of [3H]diprenorphine from human cloned mu type opioid receptor expressed in CHO cell membranes by scintillation counter
Mu-type opioid receptor, sequence (P35372 whole entry): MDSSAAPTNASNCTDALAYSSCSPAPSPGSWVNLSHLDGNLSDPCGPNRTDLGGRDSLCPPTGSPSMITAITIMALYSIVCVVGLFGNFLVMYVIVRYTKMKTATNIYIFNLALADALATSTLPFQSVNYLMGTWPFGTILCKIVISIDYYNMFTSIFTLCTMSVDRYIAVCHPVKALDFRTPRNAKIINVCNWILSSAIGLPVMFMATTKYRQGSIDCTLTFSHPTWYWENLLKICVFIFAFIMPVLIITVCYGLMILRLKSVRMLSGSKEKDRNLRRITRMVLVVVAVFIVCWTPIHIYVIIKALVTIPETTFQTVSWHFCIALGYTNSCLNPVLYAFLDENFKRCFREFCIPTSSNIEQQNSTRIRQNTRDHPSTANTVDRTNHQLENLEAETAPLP

[5] = molecular target: Kappa-type opioid receptor (Homo sapiens, UniProt P41145); assay: biochemical
Kappa-type opioid receptor, sequence (P41145 whole entry): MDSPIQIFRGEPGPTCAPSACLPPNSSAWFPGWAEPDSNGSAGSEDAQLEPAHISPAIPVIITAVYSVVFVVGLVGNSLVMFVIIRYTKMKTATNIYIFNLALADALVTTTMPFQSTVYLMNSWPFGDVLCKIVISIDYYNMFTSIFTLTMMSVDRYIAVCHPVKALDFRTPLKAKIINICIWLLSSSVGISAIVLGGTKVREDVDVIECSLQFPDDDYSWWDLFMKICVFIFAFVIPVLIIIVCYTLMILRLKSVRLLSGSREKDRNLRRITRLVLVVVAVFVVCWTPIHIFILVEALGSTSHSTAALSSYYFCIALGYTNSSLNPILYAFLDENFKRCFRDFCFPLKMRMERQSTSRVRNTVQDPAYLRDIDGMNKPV
Description: Displacement of [3H]diprenorphine from human cloned kappa type opioid receptor expressed in CHO cell membranes by scintillation counter

[6] = molecular target: Delta-type opioid receptor (Homo sapiens, UniProt P41143); assay: biochemical
Delta-type opioid receptor, sequence (P41143 whole entry): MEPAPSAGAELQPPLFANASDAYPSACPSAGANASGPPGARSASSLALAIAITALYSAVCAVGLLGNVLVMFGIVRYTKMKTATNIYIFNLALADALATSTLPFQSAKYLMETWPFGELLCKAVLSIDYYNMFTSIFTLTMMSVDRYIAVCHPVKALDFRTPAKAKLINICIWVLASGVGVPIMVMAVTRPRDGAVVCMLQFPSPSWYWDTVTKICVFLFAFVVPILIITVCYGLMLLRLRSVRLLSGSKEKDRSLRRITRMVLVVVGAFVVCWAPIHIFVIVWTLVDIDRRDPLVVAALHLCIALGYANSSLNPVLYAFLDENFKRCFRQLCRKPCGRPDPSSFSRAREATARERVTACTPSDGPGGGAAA
Description: Displacement of [3H]diprenorphine from human cloned delta type opioid receptor expressed in CHO cell membranes by scintillation counter

[7] = tested on: Rattus norvegicus; assay: In vivo receptor occupancy of NOP receptor in po dosed Harlan Sprague-Dawley rat hypothalamus co-administered with unlabeled tracer compound at 3 ug/kg, iv; type: functional

Compound	SUV [1]	logD ([2]; read-out: logD)	SUV [3]	Ki [4]	Ki [5]	Ki [6]	ED50 [7]	logD [2]
CC(C)N(C)C(=O)[C@@H](Cc1ccccc1F)CN1CCC2(CC1)OCCc1cc(F)sc12	143%	4.47	–	–	–	–	–	–
O=C1NCN(c2ccccc2)C12CCN([C@H]1CC[C@@H]3CCCc4cccc1c43)CC2	–	3.46	–	–	–	–	–	–
CNC(=O)Cn1c(=O)n(C2CCN([C@@H]3Cc4cccc5cccc3c45)CC2)c2ccccc21	–	–	0%	–	–	–	–	–
COC(=O)CN1CN(c2ccccc2)C2(CCN(Cc3cccc4ccccc34)CC2)C1=O	–	3.85	6%	–	–	–	–	–
CN(C)C(=O)C(Cc1cscn1)CN1CCC2(CC1)OCc1ccc(F)cc12 (configuration not stated)	–	2.02	25%	> 400 nM	> 400 nM	> 400 nM	–	–
CNC(=O)C(Cc1ccccc1Cl)CN1CCC2(CC1)OCCc1cc(Cl)sc12 (configuration not stated)	–	3.77	87%	–	–	–	–	–
NC(=O)C(Cc1ccccc1Cl)CN1CCC2(CC1)OCCc1cc(Cl)sc12 (configuration not stated)	–	4.58	145%	–	–	–	–	–
CN(C)C(=O)[C@@H](Cc1ccccc1F)CN1CCC2(CC1)OCCc1cc(F)sc12.O=C(O)C(O)C(O)C(=O)O	154%	3.89	–	> 400 nM	> 400 nM	> 400 nM	–	–
Cc1cccc2c1CC[C@H](CN1CCC(c3c(Cl)cccc3Cl)CC1)C[C@@H]2O	–	3.56	130%	> 400 nM	> 400 nM	> 400 nM	6.9 mg/kg	–
CN(C)C(=O)C(CN1CCC2(CC1)OCCc1ccsc12)Cn1cccn1 (racemic)	–	–	–	> 400 nM	> 400 nM	> 400 nM	–	–
CN(C)C(=O)C(Cc1ccccc1Cl)CN1CCC2(CC1)OCCc1ccsc12 (racemic)	–	–	–	> 400 nM	> 400 nM	> 400 nM	–	–
CN(C)C(=O)C(Cc1ccccc1F)CN1CCC2(CC1)OCCc1ccsc12 (racemic)	–	–	–	> 400 nM	> 400 nM	> 400 nM	–	–
CN(C)C(=O)C(Cc1c(F)cccc1F)CN1CCC2(CC1)OCCc1ccsc12 (racemic)	–	–	–	> 400 nM	> 400 nM	> 400 nM	–	–
CN(C)C(=O)C(CN1CCC2(CC1)OCCc1cc(F)sc12)Cn1cccn1.O=C(O)C(O)C(O)C(=O)O (single isomer, unassigned; (+))	–	2.84	65%	–	–	–	–	–
CN(C)C(=O)C(Cc1ccccc1F)CN1CCC2(CC1)OCCc1cc(Cl)sc12.O=C(O)C(O)C(O)C(=O)O (single isomer, unassigned; (+))	–	4.27	88%	> 400 nM	> 400 nM	> 400 nM	–	–
CN(C)C(=O)C(Cc1ccccc1Cl)CN1CCC2(CC1)OCCc1cc(F)sc12 (single isomer, unassigned; (+))	208%	4.38	–	> 400 nM	> 400 nM	> 400 nM	–	–
CN(C)C(=O)C(CN1CCC2(CC1)OCCc1ccsc12)Cn1cccn1.O=C(O)C(O)C(O)C(=O)O (single isomer, unassigned; (-))	–	2.03	15%	–	–	–	–	–
CN(C)C(=O)C(Cc1ccccc1Cl)CN1CCC2(CC1)OCCc1cc(Cl)sc12.O=C(O)C(O)C(O)C(=O)O (single isomer, unassigned; (-))	–	4.61	75%	> 400 nM	> 400 nM	> 400 nM	–	–
CNC(=O)C(Cc1ccccc1F)CN1CCC2(CC1)OCCc1cc(Cl)sc12 (single isomer, unassigned; (-))	–	4.19	46%	–	–	–	–	–
CNC(=O)C(Cc1ccccc1Cl)CN1CCC2(CC1)OCCc1cc(F)sc12 (single isomer, unassigned; (-))	154%	3.9	–	–	–	–	–	–
CN(C(=O)C(Cc1ccccc1F)CN1CCC2(CC1)OCCc1cc(F)sc12)C1CC1 (single isomer, unassigned; (-))	–	4.77	82%	–	–	–	–	–
CN(C(=O)C(Cc1ccccc1Cl)CN1CCC2(CC1)OCCc1cc(F)sc12)C1CC1 (single isomer, unassigned; (-))	–	5.52	72%	–	–	–	–	–
CNC(=O)[C@@H](Cc1ccccc1F)CN1CCC2(CC1)OCCc1cc(F)sc12 [NOP-1A]	124%	–	–	–	–	–	–	3.5
